Experimental data reported in paper PMC4010497, “Synthesis and Evaluation of Fluorine-Substituted Phenyl Acetate Derivatives as Ultra-Short Recovery Sedative/Hypnotic Agents” (PLoS ONE, 2014).
Read-outs that look alike come from different tables or passages of the source.

Key:
rabbits [1] = experiment: Hypnotic potency and recovery after IV bolus in rabbits; type: in vivo, rabbit; conditions: for Duration of LORR / Time to walk: 2× HD50 dose, mean ± SD; for HD50: IV, 95% confidence limits
Procedure: (§1) All tests were performed during the light period. Groups of mice, rats and rabbits were injected intravenously (lateral tail vein) over 10 s with each dose of test compound, placed in separate boxes to reduce external stimuli and assessed for the loss of righting reflex. Dosing was performed using mg/kg scheme. A set of dose levels was chosen, and depending on whether the loss of righting reflex was observed, extra doses were introduced to provide data for the loss of righting reflex over a narrow dose range to allow potency calculations.
Immediately following the injection, the mice, rats and rabbits were tested for loss of righting reflex. […] Once a loss was observed, the interval between the loss of righting reflex and the return to righting reflex was recorded. […] To compare the duration of LORR of each compound at equipotent doses, groups of mice, rats and rabbits were injected with each compound at 2× HD50 over 10 s.
(§2) Time to walk was the time required after righting before mice and rabbits walked from the center to the periphery of a 30-cm diameter dise.

mice [2] = experiment: animal or person; type: in vivo; conditions: for ED50: Mus musculus
Procedure: as §1, with “calculations. From the percentage of mice, rats and rabbits in each group showing loss of righting reflex for ≥30 s, a probit analysis (SAS Institute) was performed to obtain an HD50 for each compound with 95% confidence limits.” for “calculations.”
(§3) Immediately following the injection, the mice, rats and rabbits were tested for loss of righting reflex. […] Once a loss was observed, the interval between the loss of righting reflex and the return to righting reflex was recorded. The anesthetized animals recovered righting reflexes spontaneously. To compare the duration of LORR of each compound at equipotent doses, groups of mice, rats and rabbits were injected with each compound at 2× HD50 over 10 s.
as §2
(§4) The rotarod test was conducted to evaluate the recovery to the motor coordination. Before the LORR test, mice were trained for 2 consecutive days. Trained mice could maintain their balance on rod for more than 2 mins. After the mice could walk from the center to the periphery of a 30-cm diameter dise, they were put on the rotarod. Mice were classified as behavioral recovery when, on being placed on the rod, they could maintain their balance for 20 s. The time to behavioral recovery was the time required after mice walked from the centre to the periphery of a 30-cm diameter disc before they could maintain their balance on rod for 20 s.

rat [3] = type: in vivo; conditions: for HD50: IV, 95% confidence limits
Procedure: as §1, with “calculations. From the percentage of mice, rats and rabbits in each group showing loss of righting reflex for ≥30 s, a probit analysis (SAS Institute) was performed to obtain an HD50 for each compound with 95% confidence limits.” for “calculations.”
as §3, §2, §4

rat [4] = experiment: Therapeutic index (LD50/HD50) in rat; type: in vivo
Procedure: (§5) The LD50 was determined in mice, rats, and rabbits and the TI was calculated as LD50/HD50.

rabbits [5] = experiment: Hypnosis in response to IV infusion in rabbits; type: in vivo, rabbit; conditions: for time to walk after infusion: 20-min IV infusion; for duration of LORR after cessation of infusion: 20-min IV infusion at half the HD50 per min after 2× HD50 induction
Procedure: Induction of hypnosis in rabbits was achieved using 2× HD50 dose of test compound, and immediately after induction, infusion via the tail vein was commenced at half the HD50 dosage per min. the infusion rate was maintained for 20 min or 1 h or 3 h later. The depth of hypnosis was monitored by the magnitude of a withdrawal reflex to intermittent paw pinch provided by a pair of forceps.

[6] = target: T1, human GABAA receptor α1, β2 and γ2 (CHO-K1 cells) (Homo sapiens, UniProt P14867+P18507+P47870); experiment: cell-based
T1 construct: expressed in transfected cells; host or cells: CHO-K1 cells, stably transfected
Procedure: Chinese hamster ovary (CHO)-K1 cells transfected stably with human GABAA receptor α1, β2 and γ2 subunit cDNAs were used. The cells were plated onto collagen-coated 35-mm cell culture dishes at low density for 1–7 days before recording. Test solutions were prepared in the extracellular solution on the day the patch-clamp assay was performed. The intracellular solution consisted of 22 mM KCl, 110 mM K-aspartate, 8 mM NaCl, 1 mM MgCl2, 1 mM CaCl2, 10 mM ethylene glycol tetraacetic acid, 5 mM Na2ATP, 10 mM hydroxyethyl piperazineethanesulfonic acid (HEPES) (adjusted to pH 7.2 using KOH), while the extracellular solution contained 145 mM NaCl, 4 mM KCl, 2 mM CaCl2, 2 mM MgCl2, 10 mM HEPES (adjusted to pH 7.4 using NaOH). The assay was performed at room temperature. Cells were maintained at −70 mV and the potentiation effect was assessed by co-application of the test compound with EC20 of muscimol after the cell was pre-incubated with the test compound for 45 s. GABA EC20 measured individually in each cell. The amplitude of the Cl− current in response to muscimol and/or test compound was determined. The response to the co-application of the test compound and muscimol was normalized to the control muscimol response as a percentage of the control. A potentiation effect was indicated by a value >100% of the control response. EC50 values were calculated using the four parameter logistic equation, where E was the amplitude of the muscimol-induced current in the presence of the anesthetic at concentration [A], EMAX was the amplitude of the response in the presence of a maximally effective concentration of the anesthetic, EC50 was the concentration of anesthetic producing a half-maximal enhancement of the muscimol-induced response and nH was the Hill coefficient. [drawing 1]

in vivo = conditions: mouse, in vivo; mice, 95% confidence limits
Procedure: as §5

GABAA receptor = experiment: GABAA radioligand binding assay ([3H]EBOB); conditions: 50 µM compound, 0.5 nM [3H]EBOB, rat frontoparietal cortex
Procedure: All the new compounds were dissolved in 5% DMSO.
Specific binding was determined in the presence of compounds.
Membrane suspensions were thawed and centrifuged in incubation buffer at 10,000×g for 10 min and washed by a similar centrifugation. For displacement studies, membrane suspensions (5 mg original wet wt./ml) were incubated with 0.5 nM [^3H]EBOB ([…], Perkin Elmer Life Sciences, Boston, MA, USA) in the absence or presence of 50 µM of new compounds or reference drug for 2 h at 25°C. Nonspecific binding was determined in the presence of 10 µM Bicuculline. Bicuculline and picrotoxin were frequently used to determine the nonspecific binding when [3H]EBOB as radioligand [17]. Triplicate 1 ml samples were filtered on Whatman GF/B filters under vacuum with a Brandel Harvester and washed with 3×3 ml ice-cold buffer.

mice [7] = experiment: in vivo; conditions: LD50/HD50
Procedure: as §5

rabbits [8] = experiment: Therapeutic index (LD50/HD50) in rabbits; type: in vivo, rabbit
Procedure: as §5

[9] = Octanol:water partition coefficient; type: physicochemical; conditions: water buffered with 10 mm Tris (pH 7.4)
Procedure: One mg of each hypnotic was added to 10 ml of water buffered with 10 mm Tris (pH 7.4) and 1 ml of octanol. The mixture was stirred overnight and then centrifuged to fully separate the organic and aqueous phases. The relative hypnotic concentration in each phase (i.e., the partition coefficient) was determined by high-performance liquid chromatography as described for blood.

[10] = target: T1, human GABAA receptor α1, β2 and γ2 (CHO-K1 cells); parameters: method as in PMID 22531340; conditions: GABAA receptor electrophysiology; cited from earlier work
[11] = In vitro metabolic half-life in monkey whole blood; type: in vitro ADME; conditions: male, Cynomolgus monkey (n = 3), 37°C, read-out: Mean t1/2 Value
Procedure: (§6) Human whole blood stability experiments were conducted in whole blood from four human donors (male, 18–25 years). Single experiments were conducted with pooled blood from Sprague-Dawley rats (male, 8 weeks, n = 3), New Zealand White rabbits (male, 8–10 weeks, n = 3), Beagle dogs (male, 2–3 years, n = 3) and Cynomolgus monkeys (male, 3–4 years, n = 3). All the blood samples were provided by Xuzhou Medical College. A 1.35-ml aliquot of blood was warmed at 37°C for 5 min and hypnotic (from a 40 mM stock in DMSO solution) was added to a final concentration of 200 µM. After the specified incubation time, a 150-µl sample was removed and the metabolic reaction was quenched using 150-µl acetonitrile. Zero time-point samples were prepared by adding 150-µl acetonitrile (using a 4 mM stock in DMSO) to 150-µl blood before addition of the hypnotic. The quenched samples were centrifuged, and the supernatant was separated and stored at −20°C until analyzed. Hypnotic concentrations in thawed samples were determined by high-performance liquid chromatography using a 3-µm phenyl 4.6×50-mm C-A-25, ACE column with the UV detector set at 240 nm. […] The lower limit of quantitation of this assay is 3 µM and the accuracy within 15% at 10 µM. The metabolic half-lives were quantified from the incubation time-dependent change in drug concentration.

[12] = In vitro metabolic half-life in rabbit whole blood; type: in vitro ADME; conditions: male, New Zealand White rabbit (n = 3), 37°C, read-out: Mean t1/2 Value
Procedure: as §6

[13] = In vitro metabolic half-life in human whole blood; type: in vitro ADME; conditions: male, Human (n = 4), 37°C, read-out: Mean t1/2 Value
Procedure: as §6

[14] = In vitro metabolic half-life in dog whole blood; type: in vitro ADME, Beagle dog; conditions: male; whole blood, Beagle dog (n = 3), 37°C, 200 µM; read-out: Mean t1/2 Value
Procedure: Human whole blood stability experiments were conducted in whole blood from four human donors (male, 18–25 years). Single experiments were conducted with pooled blood from Sprague-Dawley rats (male, 8 weeks, n = 3), New Zealand White rabbits (male, 8–10 weeks, n = 3), Beagle dogs (male, 2–3 years, n = 3) and Cynomolgus monkeys (male, 3–4 years, n = 3). All the blood samples were provided by Xuzhou Medical College. A 1.35-ml aliquot of blood was warmed at 37°C for 5 min and hypnotic (from a 40 mM stock in DMSO solution) was added to a final concentration of 200 µM. After the specified incubation time, a 150-µl sample was removed and the metabolic reaction was quenched using 150-µl acetonitrile. Zero time-point samples were prepared by adding 150-µl acetonitrile (using a 4 mM stock in DMSO) to 150-µl blood before addition of the hypnotic. The quenched samples were centrifuged, and the supernatant was separated and stored at −20°C until analyzed. Hypnotic concentrations in thawed samples were determined by high-performance liquid chromatography using a 3-µm phenyl 4.6×50-mm C-A-25, ACE column with the UV detector set at 240 nm. A linear gradient 20–45% acetonitrile in water with 0.05% trifluoroacetic acid was run for more than 20 min at a flow rate of 1 ml/min. The lower limit of quantitation of this assay is 3 µM and the accuracy within 15% at 10 µM. The metabolic half-lives were quantified from the incubation time-dependent change in drug concentration.

[15] = In vitro metabolic half-life in rat whole blood; type: in vitro ADME; conditions: male, Sprague-Dawley Rat (n = 3), 37°C, read-out: Mean t1/2 Value
Procedure: as §6

[16] = mice, IV over 10 s, 95% confidence limits, read-out: HD50 (the source's name)
[17] = mice, IV 2× HD50, mean ± SD (n = 10)

T1 sequence (P14867 28-456): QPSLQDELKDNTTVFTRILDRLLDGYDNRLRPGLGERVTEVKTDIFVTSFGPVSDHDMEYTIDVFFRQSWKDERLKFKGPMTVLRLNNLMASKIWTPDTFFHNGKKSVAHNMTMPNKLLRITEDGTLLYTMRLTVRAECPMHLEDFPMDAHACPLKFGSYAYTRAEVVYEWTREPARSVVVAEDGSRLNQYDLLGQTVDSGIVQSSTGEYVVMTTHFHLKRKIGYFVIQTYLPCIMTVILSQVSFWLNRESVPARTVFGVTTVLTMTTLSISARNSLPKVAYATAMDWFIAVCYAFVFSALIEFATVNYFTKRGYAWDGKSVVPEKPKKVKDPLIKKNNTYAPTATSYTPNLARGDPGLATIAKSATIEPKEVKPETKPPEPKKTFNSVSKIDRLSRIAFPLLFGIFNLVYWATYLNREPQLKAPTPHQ
T1 sequence (P47870 25-512 limits assumed): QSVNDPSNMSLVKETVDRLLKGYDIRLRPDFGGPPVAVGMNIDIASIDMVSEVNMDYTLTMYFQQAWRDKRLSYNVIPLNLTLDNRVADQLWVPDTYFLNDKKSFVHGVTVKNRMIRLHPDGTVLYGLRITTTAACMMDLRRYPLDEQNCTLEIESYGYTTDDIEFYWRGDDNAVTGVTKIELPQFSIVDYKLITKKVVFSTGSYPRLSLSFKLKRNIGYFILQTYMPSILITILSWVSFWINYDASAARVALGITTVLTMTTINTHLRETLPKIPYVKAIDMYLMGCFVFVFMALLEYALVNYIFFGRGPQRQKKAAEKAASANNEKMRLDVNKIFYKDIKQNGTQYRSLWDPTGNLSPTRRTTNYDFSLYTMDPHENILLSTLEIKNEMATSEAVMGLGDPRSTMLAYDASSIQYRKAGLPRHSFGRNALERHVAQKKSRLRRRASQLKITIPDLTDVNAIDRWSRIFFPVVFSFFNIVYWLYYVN
T1 sequence (P18507 40-475): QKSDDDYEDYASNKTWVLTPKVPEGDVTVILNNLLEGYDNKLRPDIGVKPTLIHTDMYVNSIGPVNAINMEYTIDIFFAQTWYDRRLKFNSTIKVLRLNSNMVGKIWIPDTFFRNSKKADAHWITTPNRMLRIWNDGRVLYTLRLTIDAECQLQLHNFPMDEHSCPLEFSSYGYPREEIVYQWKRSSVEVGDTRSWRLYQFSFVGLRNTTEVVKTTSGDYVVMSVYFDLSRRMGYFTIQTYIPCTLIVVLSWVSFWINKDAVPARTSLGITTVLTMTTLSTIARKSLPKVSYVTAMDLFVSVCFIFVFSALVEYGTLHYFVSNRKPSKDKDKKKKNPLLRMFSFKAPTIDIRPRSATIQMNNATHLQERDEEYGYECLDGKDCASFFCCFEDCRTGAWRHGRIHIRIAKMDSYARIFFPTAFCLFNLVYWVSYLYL

Compound	Duration of LORR (rabbits [1]) [s]	Time to walk (rabbits [1]) [s]	HD50 (rabbits [1])	HD50 (rat [3])	TI (rat [4])	time to walk after infusion (rabbits [5]) [s]	duration of LORR after cessation of infusion (rabbits [5]) [s]	LD50 (in vivo) [mg/kg]	ED50 (mice [2]; [16]) [mg/kg]	Time to walk (mice [2]; mice, 2× HD50) [s]	time to behavioral recovery (mice [2]; mice, 2× HD50, rotarod) [s]	Duration of LORR (mice [2]; [17]) [s]	Onset time (mice [2]; mice, IV, mean ± SD (n = 10)) [s]	GABAA binding (50 µmol) (Mean ± SD), percentage of inhibition (GABAA receptor) [%]	Duration of LORR (rat [3]; 2× HD50 dose, mean ± SD) [s]	Time to walk (rat [3]; 2× HD50 dose, mean ± SD) [s]	time to behavioral recovery (rat [3]; 2× HD50 dose, mean ± SD) [s]	TI (mice [7])	TI (rabbits [8])	Octanol:Water Partition (Coefficient ± SD) [9]	further results
CC(C)c1cccc(C(C)C)c1O [Propofol]	326.6 ± 48.3	425.3 ± 162.3	3.2 (2.3∼4.2) mg/kg	5.2 (4.5∼5.7) mg/kg	5.9	167.9 ± 60.8	485.6 ± 164.1	64.4													ED50 (mice [2]; iv, read-out: HD50): 11.9 mg/kg; Time to walk (mice [2]; mouse, in vivo): 76.5 ± 42.5 s; time to behavioral recovery (mice [2]; mouse, in vivo): 242.7 ± 119.2 s; Duration of LORR (mice [2]; mouse, in vivo, iv): 240.9 ± 93.7 s; Onset time (mice [2]; mouse, in vivo, iv): 8.1 ± 1.6 s; Duration of LORR (rat [3]; in vivo): 349.3 ± 93.3 s; Time to walk (rat [3]; in vivo): 286.5 ± 86.5 s; time to behavioral recovery (rat [3]; in vivo): 335.8 ± 156.9 s; EC50 [6]: 2.4 µM
CCCOC(=O)Cc1ccc(OCC(=O)N(CC)CC)c(OC)c1 [Propanidid]	265.4 ± 44.2	124.5 ± 24.8	5.1 (4.7∼5.7) mg/kg	8.4 (7.8∼10.4) mg/kg	9.6	70.2 ± 14.9	246.6 ± 65.7	119	20.9	56.3 ± 23.5	83.9 ± 17.1	89.6 ± 18.2	6.7 ± 0.5	70.2±5.8	93.3 ± 16.1	58.7 ± 18.8	79.9 ± 34.6	5.6	14.7	394±40	EC50 ([6]; GABAA (α1β2γ2) CHO-K1 cell, patch clamp, read-out: EC50, potentiation of EC20 muscimol evoked chloride currents): 25.2 µM
CCCOC(=O)Cc1ccc(OCC(=O)N(CC)CC)c(OCC)c1 [AZD3043, reference compound]	221.6 ± 38.8	89.6 ± 7.6	4.8 (4.6∼5.6) mg/kg	8.2 (7.7∼9.8) mg/kg	10.1	46.3 ± 11.2	135.6 ± 66.7	98.4	17.6	36.7 ± 6.4	65.5 ± 14.1	63.8 ± 8.5	5.6 ± 1.2	83.2±7.4	74.2 ± 10.5	38.4 ± 9.6	56.9 ± 12.5	6.0	15.6	466±54	EC50 [10]: 36 µM; half-life at 200 µM [11]: 56.7 ± 11.9 min; half-life at 200 µM [12]: 14.8 ± 3.3 min; half-life at 200 µM [13]: 28.6 ± 6.2 min; half-life at 200 µM [14]: > 60 min; half-life at 200 µM [15]: 0.6 ± 0.1 min
